Each compound was assayed on vertebral artery (assay: vascular resistance of the vertebral artery in anesthetized dogs (ED30)). Settings: Canis lupus familiaris, intravenous injection.
Format: in vivo, dog
Description: The pharmacological effect (ED30) of the compounds of the present invention with respect to the vascular resistance of the vertebral artery in anesthetized dogs was treated by the following procedure.
Adult dogs of either sex (7-14 kg in body weight) were anesthetized with at first thiopental sodium (35 mg/kg, intraperitoneal), anesthetized with urethane (400 mg/kg, intravenous) and chloralose (60 mg/kg, intravenous) and kept under artificial respiration throughout the experiment. After thoracotomy at the left first intercostal space, the vertebral artery was exposed and blood flow was measured with intracorporeal flow probe connected to an electromagnetic flowmeter (MF-27, Nihon Kohden).
At the same time, continuous measurement of the following parameters was made: systemic blood pressure (mean pressure) at the right femoral artery, the limb lead II ECG, the heart rate with a tachometer triggered by the R wave of ECG, and the vascular resistance determined by loading a electronic divider unit (EO-601 G, Nihon Kohden) with the mean values of blood pressure and vertebral artery blood flow. All of these parameters were recorded simultaneously on a polygraph (RM-600, Nihon Kohden).
All the test compounds were injected through a cannula inserted into the femoral vein.
The ED30 (μg/kg) values obtained by intravenous injection are listed in Table 4, wherein the Compound Numbers are keyed to the Example Numbers.

Point of comparison: `CCOC(=O)C1=C(C)N=C(C)N(C(=O)OCCN(CCCc2ccccc2)Cc2ccccc2)C1c1ccccc1[N+](=O)[O-]` (stereo not shown) [Compound 40], ED30 1.5 µg/kg. Against it:
- CC1=NC(C)=C(C(=O)OCC2CC2)C(c2ccccc2[N+](=O)[O-])N1C(=O)OCCN(C)C(c1ccccc1)c1ccccc1 (stereo not shown) [Compound 8] — 2.7-fold higher, 4.1 µg/kg
- CCCCN(CCOC(=O)N1C(C)=NC(C)=C(C(=O)OCC2CC2)C1c1ccccc1[N+](=O)[O-])Cc1ccccc1 (stereo not shown) [Compound 14] — within 1.5-fold, 2.1 µg/kg
- CCN(CCOC(=O)N1C(C)=NC(C)=C(C(=O)OCC2CC2)C1c1ccccc1[N+](=O)[O-])c1ccccc1 (stereo not shown) [Compound 15] — 1.7-fold higher, 2.5 µg/kg
- CC1=NC(C)=C(C(=O)OCC2CC2)C(c2ccccc2[N+](=O)[O-])N1C(=O)OCCCN(C)Cc1ccccc1 (stereo not shown) [Compound 16] — 2.5-fold higher, 3.8 µg/kg
- CC1=NC(C)=C(C(=O)OCC2CC2)C(c2ccccc2[N+](=O)[O-])N1C(=O)OCCN(C)CCc1ccccc1 (stereo not shown) [Compound 17] — 2.3-fold higher, 3.4 µg/kg
- CC1=NC(C)=C(C(=O)OCC2CC2)C(c2ccccc2[N+](=O)[O-])N1C(=O)OCC1CCCN1Cc1ccccc1 (stereo not shown) [Compound 19] — within 1.5-fold, 1.4 µg/kg
- CC1=NC(C)=C(C(=O)OCC2CC2)C(c2ccccc2[N+](=O)[O-])N1C(=O)OCCN1CCOCC1 (stereo not shown) [Compound 20] — 2.7-fold higher, 4 µg/kg
- CC1=NC(C)=C(C(=O)OCC2CC2)C(c2ccccc2[N+](=O)[O-])N1C(=O)OCCN1CCN(c2cccc(C(F)(F)F)c2)CC1 (stereo not shown) [Compound 26] — 2.7-fold higher, 4.1 µg/kg
- CC1=NC(C)=C(C(=O)OCC2CC2)C(c2ccccc2[N+](=O)[O-])N1C(=O)OCCN(C)Cc1ccc2ccccc2c1 (stereo not shown) [Compound 30] — 2.5-fold lower, 0.6 µg/kg
- CC1=NC(C)=C(C(=O)OCC2CC2)C(c2ccccc2[N+](=O)[O-])N1C(=O)OCCN(C)Cc1ccccn1 (stereo not shown) [Compound 35] — 2.8-fold higher, 4.2 µg/kg
- CC1=NC(C)=C(C(=O)OC(C)C)C(c2ccccc2[N+](=O)[O-])N1C(=O)OCCN(CCCc1ccccc1)Cc1ccccc1 (stereo not shown) [Compound 39] — 1.5-fold higher, 2.3 µg/kg
- CCCOC(=O)C1=C(C)N=C(C)N(C(=O)OCCN(Cc2ccccc2)Cc2ccccc2)C1c1ccccc1[N+](=O)[O-] (stereo not shown) [Compound 46] — within 1.5-fold, 2 µg/kg
- COC(=O)C1=C(C)N=C(C)N(C(=O)OCCN(Cc2ccccc2)Cc2ccccc2)C1c1ccccc1[N+](=O)[O-] (stereo not shown) [Compound 48] — within 1.5-fold, 2 µg/kg
- CC1=NC(C)=C(C(=O)OC(C)C)C(c2ccccc2[N+](=O)[O-])N1C(=O)OCCN(Cc1ccccc1)Cc1ccccc1 (stereo not shown) [Compound 49] — 1.9-fold higher, 2.8 µg/kg
- CC1=NC(C)=C(C(=O)OC(C)C)C(c2ccccc2[N+](=O)[O-])N1C(=O)OCCN(Cc1ccccc1)c1ccccc1 (stereo not shown) [Compound 50] — 2-fold lower, 0.74 µg/kg
- CC1=NC(C)=C(C(=O)OC(C)C)C(c2ccccc2[N+](=O)[O-])N1C(=O)OCCN(CCc1ccccc1)c1ccccc1 (stereo not shown) [Compound 54] — within 1.5-fold, 1.4 µg/kg
- COC(=O)C1=C(C)N=C(C)N(C(=O)OCCN(CCCc2ccccc2)Cc2ccccc2)C1c1ccccc1[N+](=O)[O-] (stereo not shown) [Compound 57] — 3.1-fold lower, 0.48 µg/kg
- CC1=NC(C)=C(C(=O)OC(C)C)C(c2ccccc2[N+](=O)[O-])N1C(=O)OCCN(Cc1ccccn1)c1ccccc1 (stereo not shown) [Compound 58] — 1.7-fold higher, 2.5 µg/kg
- CC1=NC(C)=C(C(=O)OCC(C)C)C(c2ccccc2[N+](=O)[O-])N1C(=O)OCCN(Cc1ccccc1)c1ccccc1 (stereo not shown) [Compound 60] — within 1.5-fold, 1.7 µg/kg
- CCOC(=O)C1=C(C)N=C(C)N(C(=O)OCCN(Cc2ccccc2)Cc2ccccc2)C1c1ccccc1[N+](=O)[O-] (stereo not shown) [Compound 61] — within 1.5-fold, 1.4 µg/kg
- CC1=NC(C)=C(C(=O)OC(C)C)C(c2ccccc2[N+](=O)[O-])N1C(=O)OCCN(CCc1ccccc1)Cc1ccccc1 (stereo not shown) [Compound 62] — within 1.5-fold, 1.2 µg/kg
- CC1=NC(C)=C(C(=O)OCC2CC2)C(c2ccccc2[N+](=O)[O-])N1C(=O)OCCc1cccs1 (stereo not shown) [Compound 63] — within 1.5-fold, 1.3 µg/kg
- CC1=NC(C)=C(C(=O)OCC2CC2)C(c2ccccc2[N+](=O)[O-])N1C(=O)OCCSc1nc2ccccc2s1 (stereo not shown) [Compound 64] — 1.6-fold lower, 0.93 µg/kg
- CC1=NC(C)=C(C(=O)OC(C)C)C(c2ccccc2[N+](=O)[O-])N1C(=O)OCCN(Cc1ccccc1)Cc1cccs1 (stereo not shown) [Compound 67] — 1.5-fold lower, 1 µg/kg
